Experimental data from PMC5131364, “Pharmacologic modulation of RORγt translates to efficacy in preclinical and translational models of psoriasis and inflammatory arthritis” (Scientific Reports, 2016).

Experiments:
PBMC from RA patients = assay: IL-17A/IL-22 production from PBMC of rheumatoid arthritis patients; type: cell-based, human; details: anti-CD3/anti-CD28 plus IL-1β and IL-23, 3 days
Text: Frozen PBMCs of healthy and rheumatoid arthritis patients were obtained from SeraCare Life Sciences (Gaithersburg, MD). […] 3 days later, supernatants were collected and analyzed by MSD multi-spot assay or ELISA for IL-17A, IL-22 and IL-13 production.

[1] = tested on: human CD4+ T cells under Treg polarizing conditions; assay: Human Treg in vitro differentiation; type: cell-based; details: 6 days, 1 μM
Experimental: Mouse CD4+ T cell in vitro Th1 differentiation
Total CD4+ T cells were isolated from splenocytes of C57/BL6 mice (Chareles River Labrotory) using a CD4+ T cell isolation kit (Miltenyl Biotec, Auburn, CA), following the manufacturer’s instructions. Cells were resuspended in culture medium (described in Method section of Th17 differentiation) and were added to 96‐well plates at 2x10^5 per well. Titrated JNJ‐54271074 was added to each well at final DMSO concentration of 0.2%. Cells were incubated for 1 hour, after which Th1 cell differentiation medium was added with final concentrations of 1 µg/ml anti‐CD3, 5 µg/mL anti‐CD28 (BD Pharmingen, San Diego, CA), 10 µg/ml anti‐IL4, 10 ng/mL IL‐12, (R&D Systems, Minneapolis, MN). Cells were cultured at 37 °C and 5% CO2 for 3 days. Supernatants were collected and the accumulated cytokines in culture were measured by ELISA kits (R&D Systems, Minneapolis, MN) following manufacturers' instructions.
IL‐23 induced IL‐17A and IL‐22 production in mouse splenocytes splenocytes were isolated from C57/BL6 mice and resuspended in medium and cultured in 96‐well plates at […] per 100 µL per well. […] Supernatants were collected and the accumulated cytokines in culture were measured by ELISA according to the manufacturer’s instructions (IL‐17A kit from R&D systems, and IL‐22 from Biolegend San Diego). […]

## COc1nc2ccc([C@@](O)(c3ccc(C)nc3C)c3cnnn3C)cc2c(Cl)c1Cc1ccc(C(F)(F)F)cc1 [JNJ-54271074]
PBMC from RA patients; Homo sapiens, PBMC, 72 h, read-out: IC50, IL-17A production from PBMC from RA subjects
  IC50: 5 ± 1.2 nM
PBMC from RA patients; RA PBMC
  efficacy, inhibition of IL-17A production: 88%
  efficacy, inhibition of IL-22 production: 44%
[1]
  mRNA expression of FOXP3: slightly increased
  percentage of FOXP3+ T cell: no impact
